Data reported in ChEMBL document CHEMBL3507680, “University of Dundee, Gates Library screen for HepG2 cell viability”.

Assay: Human HepG2 cell viability assay in 384 well format
Format: toxicity, cell-based
Set-up: dose 125 nL, time 70.5 hour; concentration not given beside the values
Conditions: HepG2 cells, read-out: Inhibition

SMILES | cytotoxicity at 70.5 h
CN1CCN(c2cnn(Cc3ccc(S(C)(=O)=O)cc3)c(=O)c2)CC1 | -2.57%
CC(C)c1nccc([C@H]2C[C@@H]3CCN(Cc4ccoc4)C[C@H]3O2)n1 | -4.74%
O=S(=O)(NCc1ccccc1)N1CCN(c2ncccn2)CC1 | -18.4%
Cc1noc(C)c1CNC(=O)NCCC(=O)N1CCCc2ccccc21 | 3.77%
O=C1CCCc2[nH]c(=O)c(C(=O)N(CC3CCCCC3)C3CC3)cc21 | -7.98%
COc1ccccc1-c1ccc(C(=O)N2C[C@H]3CC[C@@H]2CN(C)C3)cc1 | -8.1%
CCn1ncc2c1CN(C(=O)c1ccc3c(c1)OCO3)CC2COC (configuration not stated) | -1.24%
O=C(C1CCC1)N1C[C@@H]2CC[C@H](C1)N(S(=O)(=O)c1cccnc1)C2 | -5.86%
CN1CCN(Cc2cnc(S(=O)(=O)CC3CC3)n2CC2CCCO2)CC1 (configuration not stated) | -4.87%
CCc1onc(C)c1C(=O)N1CCN(c2ncc3c(n2)CCOC3)CC1 | -1.33%
CCN1CC[C@@]2(C(=O)N(C)C)CCN(C(=O)Cc3ccccc3)CC[C@@H]12 | -8.1%
CN1CC(C(=O)NCc2ccnc(-n3cccn3)c2)CC1=O (configuration not stated) | -22.4%
Cc1nc(C)n(C2CCCN(C(=O)c3sccc3C)C2)n1 (configuration not stated) | -5.74%
C[C@@H]1CN(CCC(=O)NCc2ccccc2Cl)CC[C@@]1(O)C1CCC1 | -0.451%
CCCS(=O)(=O)N1CCOCC2(CCN(c3ccccn3)C2)C1 (configuration not stated) | -11.6%
CCn1c(C)cc(C(=O)N2CCC(NC(=O)c3cc(C)no3)CC2)c1C | -112%
COc1ccc(/C=C/CN2CCC3(C2)CN(C)C(=O)O3)cc1 (configuration not stated) | -6.62%
Cn1ncc2c1NC(=O)CC2c1cc2c(cc1Cl)OCO2 (configuration not stated) | 17.7%
COCCN1CC[C@H](O)[C@@H]1Cc1ccccc1 | -16.7%
Oc1nc(N2CCOCC2)nc2c1CCN(Cc1cccnc1)CC2 | -1.7%
CSCC1CCN(c2nc(N)ncc2C)CC1 | -9.1%
O=C(Nc1nccs1)N1CCCC(N2CCNC2=O)C1 (configuration not stated) | 1.93%
O=C(c1sccc1C1CC1)N1CCN(Cc2cscn2)CC1 | 5.77%

SMILES | cytotoxicity at 70.5 h
CSCc1cc(F)ccc1CNC(=O)N1CCCC1 | -4.58%
Cc1nc[nH]c1CN1CCN(C2CCOCC2)CC(C(N)=O)C1 (configuration not stated) | -9.69%
COc1cc(N2C[C@@H]3COC[C@]3(C(=O)NC3CC(F)(F)C3)C2)ncn1 | -4.63%
CCn1ccnc1C1CCN(c2ncnc3ccsc23)CC1 | 7.55%
Cn1ccnc1CN1CCO[C@H]2C(CNC(=O)c3ccco3)CC[C@@H]21 (some centres not stated) | -0.67%
CC1COC2(CCN(C(=O)c3ncoc3C(C)C)CC2)O1 (configuration not stated) | 11.1%
O=C(NCCCc1ccco1)c1cnc(N2CCOCC2)nc1 | -18.7%
c1ccc(-c2nnc(N3CCCC4(CCOC4)C3)s2)cc1 (configuration not stated) | 1.41%
O=C(C[C@@H]1COC[C@H]2CN(C(=O)c3cccnc3)C[C@@H]12)N1CCCC1 | 1.64%
O=C(Nc1ccc(F)cc1)NC1(CCO)CCOCC1 | -7.29%
Cc1ccc(CNC(=O)NCc2ccco2)s1 | -24.6%
COc1ncccc1CN1Cc2nnn(C)c2C(COCC2CC2)C1 (configuration not stated) | 1.61%
CN(Cc1cccnc1)CC1CCCN1c1cccnn1 (configuration not stated) | 13.1%
COCCc1noc(CN2CCCCC2Cn2cncn2)n1 (configuration not stated) | -8.74%
O=C(C[C@H]1[C@H]2CN(c3ncccn3)C[C@@H]12)Nc1cccnc1 | 4.76%
c1cnn(CC2CCCCN2c2ncnc3ccsc23)c1 (configuration not stated) | 18.2%
O=S(=O)(C1CC1)N1CC[C@]2(C[C@@H](Oc3ccccn3)CO2)C1 | -18.9%
CCc1noc(CN(C)C(=O)C(C)(C)Oc2cccc(Cl)c2)n1 | 7.49%
Fc1cnc(N2CCCC3(CN(Cc4ccccc4)CCO3)C2)nc1 (configuration not stated) | -4.05%
CC(C)C(C(N)=O)c1cccc(Cl)c1 (configuration not stated) | -3.86%
CCNC(=O)NC[C@H]1COCc2nc3cc(C)ccc3n21 | -3.17%
CC(C)c1nc(CSc2nnc(Cn3cncn3)o2)cs1 | 0.92%
COc1ccc2c(c1)NC(=O)C2OC(=O)CC(C)(C)C (configuration not stated) | -9.54%

SMILES | cytotoxicity at 70.5 h
CCC(CNC1CCN(C(C)=O)CC1)Oc1cccc(C)c1 (configuration not stated) | -6.04%
O=C(O)c1cc(NS(=O)(=O)c2ccc(Br)s2)c(F)cc1F | 1.5%
CC(C)C(=O)N1CCC[C@]2(C(=O)N(C)C)CN(c3ccccn3)C[C@@H]2C1 | 11.4%
O=S1(=O)COCCN1Cc1cccc(Cl)c1 | -8.17%
C[C@@H]1CN(Cc2c[nH]c(CC3CCCC3)n2)CC[C@]1(C)O | -9.37%
O=C(c1cnco1)N1CCCC(Cc2nccs2)C1 (configuration not stated) | -7.07%
CCS(=O)(=O)NC1CCCN(c2ccc(F)cc2C)C1=O (configuration not stated) | -3.11%
CN(C)c1nccc(C2CCN(C(=O)CO)CC2)n1 | 13.9%
CN1C(=O)CCC12CCN(Cc1ccco1)CC2 | -12.2%
Cn1cnc(S(=O)(=O)N2CCN(CC3CC3)c3ncccc3C2)c1 | -6.52%
Cc1cnc(N2CCc3c(CNc4ccnc(C)n4)cncc3C2)nc1 | 18.6%
COCCNC(=O)Cn1c(-c2ccc(Cl)cc2)nc(C)c(CCO)c1=O | 3.28%
CCOc1cc(C)nc(N2CCN(C(=O)c3cc(C)on3)CC2)n1 | -1.38%
COC(=O)c1cccc(C(=O)N2CCN(C(=O)N(C)C)CC2(C)C)c1 | 16.9%
Cc1ccccc1CNC(=O)c1ccccc1-n1cc(CN)cn1 | -8.06%
CC(C)N(Cc1ccc(C#N)cc1)Cc1nnsc1Cl | -15.5%
O=C(c1ccsc1)N1CC(c2nc(-c3ccc[nH]c3=O)no2)C1 | 12.8%
Cc1cc(CNC(=O)N2CCCN(Cc3ccccc3)CC2)no1 | -9.16%
O=C(Cc1ccc2c(c1)OCCO2)N1CCCC(n2cccn2)C1 (configuration not stated) | -19.6%
CSC(C)C(=O)N1CCCN(Cc2cnn(C(C)C)c2)CC1 (configuration not stated) | -12%
CCS(=O)(=O)N(C)C1CCN(Cn2ccc(-c3ccc(F)cc3)n2)CC1 | -13.9%
OCCN1CCN(CC(O)c2ccc(OC(F)(F)F)cc2)CC1 (configuration not stated) | -2.1%
CN(C)S(=O)(=O)N1CCCC(c2nccnc2-c2cccc(Cl)c2)C1 (configuration not stated) | -1.8%

SMILES | cytotoxicity at 70.5 h
CCN(CC)CC1CCN(C(=O)CCn2cccn2)CC1 | -1.21%
O=c1cc(-c2cccnc2)nc(-c2ccc(CN3CC[C@H](O)C3)cc2)[nH]1 | 9.56%
COc1cccc(C(=O)N2CCN(CC(O)c3ccccc3)CC2)c1 (configuration not stated) | -9.4%
CCN(C)S(=O)(=O)NCC1CCN(Cc2ccccc2F)C1 (configuration not stated) | -10.5%
O=C(N[C@@H]1CN(Cc2ccco2)[C@@H]2CCCO[C@@H]21)c1cscn1 | -5.42%
CC(C)n1ccnc1CN1CCCN(C(=O)c2ncccc2O)CC1 | 0.148%
Cc1ccc(C2CCCCCN2Cc2cn(C)nc2C)cc1 (configuration not stated) | -12.1%
O=C(C(C1CC1)C1CC1)N1CCC(n2ccnn2)CC1 | -9.3%
Cc1csc2ncc(-c3ccnc(N4CCC[C@@H]4CO)n3)c(=O)n12 | -2.68%
Clc1ccc2cccnc2c1CN1CCCCC1Cn1cncn1 (configuration not stated) | -4.31%
NC(=O)C1Cc2ccccc2CN1CCC(=O)N1CCc2ccccc21 (configuration not stated) | -6.41%
O=C(N1CCOCC1)N1C[C@H]2CN(Cc3nccs3)C[C@H]2C1 | 3.41%
CCn1c(CNCC2CCCN2c2cccnn2)nc2ccccc21 (configuration not stated) | -9.03%
Cc1cnn(C2CCCN(C(=O)c3cccc(-n4cnnn4)c3)C2)c1 (configuration not stated) | -3.6%
Cc1cc(N2CCN(Cc3ccc(-c4cc[nH]n4)o3)CC2)cc(C)n1 | 19.1%
CC(C)CNC(=O)c1nnsc1-c1ccccc1 | -11.5%
CCOc1ccc(Cl)c(C(=O)NC(Cc2ccccc2)C(N)=O)n1 (configuration not stated) | -1.23%
Cc1nnc(NC(=O)N2CCCCC2CCO)s1 (configuration not stated) | -0.98%
CNC(=O)NCc1nn(-c2ccccc2)c2c1CCC2 | -4.98%
Cc1cc(C)n(-c2cncc(NCCC(=O)NC(C)C)n2)n1 | -10.2%
CS(=O)(=O)Nc1ccc([C@H]2OCC(=O)N[C@@H]2CO)cc1 | 2.21%
O=S1(=O)c2cnccc2OC(COc2ccccc2)CN1CC1CC1 (configuration not stated) | -1.49%
COCCC1(CO)CCCN(C(=O)c2cccnc2OC)C1 (configuration not stated) | -5.91%

SMILES | cytotoxicity at 70.5 h
CC(C)COCC(NC(=O)c1ccccn1)c1ccco1 (configuration not stated) | -10.5%
O=C1[C@H]2CN(S(=O)(=O)C3CC3)C[C@H]2CN1CC1CC1 | 0.281%
CCN1CCC2(CN(C(=O)N(C)C)CC23CCNCC3)C1=O (configuration not stated) | -8.8%
CC(c1nc(C2CC2)no1)N1CCN(CC(=O)N2CCOCC2)CC1 (configuration not stated) | 0.558%
Cc1nn(C)c(Cl)c1C1CCCN1C(=O)c1ccc[nH]1 (configuration not stated) | 9.9%
CCCc1c(C(=O)N2CCN(c3cnccn3)CC2)cnn1C | -14.4%
O=C(NC[C@@]1(COc2cnccn2)C[C@@H](O)[C@@H](O)C1)C1CC1 | 15%
CN1C[C@@H](n2cnc(-c3ccccc3)c2-c2ccccn2)C[C@H]1C(=O)O | -10%
CC(C)c1noc(CCC(=O)NC2CCS(=O)(=O)C2)n1 (configuration not stated) | 0.473%
O=C(c1cnc(Nc2ccccc2)nc1)N1CCS(=O)(=O)CC1 | -8.85%
CCOc1ncccc1C(=O)N1CCCCC1c1nccs1 (configuration not stated) | 2.5%
COc1c(CNCC(O)c2ccc(C)cc2)c(C(C)C)nn1C (configuration not stated) | -3.08%
Cc1cc(C(=O)N2CCCCC2C)ccc1NCCCO (configuration not stated) | -17.1%
Cc1cc2nc(C(C)C)cc(N3CCN(c4ccc(O)cc4)CC3)n2n1 | -1.87%
CN(CCO)Cc1nnc(C2CCN(C(=O)c3cccn3C)CC2)n1C | -5.93%
CCn1c(Cn2cncn2)nnc1C1CCN(Cc2ccncc2)CC1 | -6.34%
Cc1ccc(CN(CCN(C)C)C(=O)Nc2cnn(C)c2)s1 | -7.54%
CN(C)C(=O)CC1CC2(CCN(Cc3ccsc3)CC2)c2ccccc21 (configuration not stated) | -16.8%
O=C1CC[C@]2(CC[C@@H](NCc3ccc4c(c3)OCO4)CC2)N1 | 19.9%
O=C(NC1CCCC1)C1CCN(c2cc(-n3ccnc3)ncn2)CC1 | 12.8%
